Columns and labels:
[1] = system: Male Swiss-Webster mice; assay: Mouse acetylcholine writhing test; assay type: in vivo; conditions: 20 min, subcutaneous, acetylcholine 3.2 mg./kg. i.p. 20 min after dosing, 95% confidence limits in parentheses
Description: Male Swiss-Webster mice each weighing 18-24 g. are treated subcutaneously (10 ml./kg. injection volume) or orally with the test compound in an aqueous vehicle. Twenty minutes thereafter each mouse is injected intraperitoneally with acetylcholine (3.2 mg./kg.) in aqueous sodium chloride (0.9%). This dose of acetylcholine causes one or more characteristic writhes in the two minute period following injection in control mice which receive the aqueous vehicle not containing the test compound. […] Test compounds are screened at doses of 100 and 30 mg./kg. subcutaneously and 300 and 100 mg./kg. orally using 15 mice at each dose level. ED50 values for active compounds are estimated by probit analysis of quantal scores at four or more dose levels using 15 mice at each dose level.

[2] = system: guinea pig ileum longitudinal muscle (electrically induced twitch); assay: Guinea pig ileum test; assay type: cell-based; conditions: ratio of IC50 of reference Met^5-enkephalin to IC50 of test compound in same preparation, averaged (N=4); Met^5-enkephalin = 100
Description: Adult male guinea pigs (Charles River, Hartley strain) weighing 300-500 g. are decapitated, and the terminal ileum is exposed by reflecting the overlying cecum, severed at the ileocecal juncture, and removed while cutting the mesenteric attachments to avoid excessive traction on the tissue. The ileum (about 30 cm. in length) is transferred to a beaker containing warm modified Krebs-Henseleit solution (118 mM sodium chloride, 4.75 mM potassium chloride, 2.54 mM calcium chloride, 1.19 mM potassium dihydrogen phosphate, 1.2 mM magnesium sulfate, 25 mM sodium bicarbonate, 11 mM glucose, 20 μM choline chloride and 0.125 μM pyrilamine maleate). The terminal (aboral) portion (about 10 cm. in length) is discarded, and segments (3-4 cm. in length) are cut from the remainder and gently slid onto a glass rod (5-6 mm. in diameter) and arranged so that the mesenteric attachment is in a straight line. A cotton swab moistened in the solution is then carefully used to separate the longitudinal muscle from the underlying circular muscle. The longitudinal muscle and adhering myenteric plexus is then gently removed from the remaining tissue with forceps.
Strips of this prepared longitudinal muscle are mounted in a double-jacketed organ bath (5 ml.) under tension (1.0 g.), connected to isometric transducers (Grass FT 0.03), bathed in the modified Krebs-Henseleit solution described above, aerated with oxygen-carbon dioxide (95:5) and maintained at 37° C.
Stimulators (Grass S-44) are set to deliver repetitive monophasic square wave field stimulation (supramaximal voltage, 0.10 Hz., 0.25 msec. duration) through platinum ring electrodes at the top and bottom of the bath. Regular contractions of the muscle, which result from electrically-induced liberation of acetylcholine from postganglionic parasympathetic nerves, are recorded on a polygraph (Grass model 5). Following tissue equilibration (45-60 min.) and repeated washing (every 10 min.) an aqueous solution of a reference or test compound is added to the bath in a microliter volume (1.25-250 μl) and reductions in muscle twitch height are recorded. More compound can be added […] first washing the preparation.
From the results a half-mazimal inhibitory concentration (IC50) value for the compound is computed by regression analysis of a linear plot of logarithm of concentration against percent of inhibition of twitch height (probits). The ratio of the IC50 value of a reference compound to that of a test compound tested in the same preparation is the molar potency ratio. Usually four preparations are tested simultaneously by the same person (N=4), and the resulting four molar potency ratios are averaged.
The following results were obtained using the examples as test compounds and Met^5 -enkephalin as the reference compound.

[3] = system: rat; conditions: rat tail flick, relative to morphine, cited from earlier work
[4] = system: mouse vas deferens; conditions: cited from earlier work
[5] = system: guinea pig ileum; conditions: cited from earlier work

| Compound | ED50 [1] [mg/kg] | Average Molar Potency Ratio [2] | also measured |
| --- | --- | --- | --- |
| CN[C@@H](Cc1ccc(O)cc1)C(=O)N(C)[C@H](C)C(=O)NCCCc1ccccc1 [Example 3, N-methyl-L-tyrosyl-N^2-methyl-N-(3-phenylpropyl)-D-alaninamide] | 9.4 | 200 |  |
| C[C@@H](NC(=O)[C@@H](N)Cc1ccc(O)cc1)C(N)=O [H-Tyr-D-Ala-NH2] |  |  | times less potent than morphine, intravenously ([3]; intravenous): greater than 10 times; times less potent than morphine, intraventricularly ([3]; intraventricular): 200 times |
| C[C@H](C(=O)NCCCc1ccc(F)cc1)N(C)C(=O)[C@@H](N)Cc1ccc(O)cc1 [Example 7, L-tyrosyl-N^2-methyl-N-[3-(4-fluorophenyl)propyl]-D-alaninamide] |  | 178 |  |
| C[C@H](C(=O)NCCCc1ccccc1)N(C)C(=O)[C@@H](N)Cc1ccc(O)cc1 [Example 1, L-tyrosyl-N^2-methyl-N-(3-phenylpropyl)-D-alaninamide] | 5.5 | 293 |  |
| CCN(C(=O)[C@@H](N)Cc1ccc(O)cc1)[C@H](C)C(=O)NCCCc1ccccc1 [Example 4, L-tyrosyl-N^2-ethyl-N-(3-phenylpropyl)-D-alaninamide] |  | 12 |  |
| Met^5 -enkephalin [reference compound] |  | 100 |  |
| C[C@H](C(=O)NCCCc1ccc(C(F)(F)F)cc1)N(C)C(=O)[C@@H](N)Cc1ccc(O)cc1 [Example 6, L-tyrosyl-N^2-methyl-N-[3-(4-trifluoromethylphenyl)propyl]-D-alaninamide] |  | 13 |  |
| C[C@H](C(=O)NCCCc1ccc(Cl)cc1)N(C)C(=O)[C@@H](N)Cc1ccc(O)cc1 [Example 5, L-tyrosyl-N^2-methyl-N-[3-(4-chlorophenyl)propyl]-D-alaninamide] |  | 51 |  |
| CN[C@@H](Cc1ccc(O)cc1)C(=O)N[C@H](C)C(=O)NCCCc1ccccc1 [Example 2, N-methyl-L-tyrosyl-N-(3-phenylpropyl)-D-alaninamide] | 10 to 30 | 194 |  |
| C[C@@H](NC(=O)[C@@H](N)Cc1ccc(O)cc1)C(=O)NCCNCCc1ccccc1 [HTyrD-AlaNH(CH2)2 NH(CH2)2 Phenyl] |  |  | potency relative to Met-enkephaline [4]: < 1%; potency relative to Met-enkephaline [5]: < 1% |

Source: patent US4533655A, “Analgesic dipeptide amides and method of use and compositions thereof” (Sterling Drug Inc., priority 1982, dated 1985)
